The nature of series [1]: Phase-solubility study of binding constant (Higuchi et al.). The following applies: in water, 1:1 complex. The source says: The resulting 1:1, molar ratio betanin/alpha-cyclodextrin inclusion complex was a red colored, free flowing powder containing 32% betanin by weight, as determined by visible spectrophotometry. […] N. Reilly, Wiley, New York, 1965. vol. 4. pp. 117-212, the complete disclosure of which is hereby incorporated by reference for all purposes. The binding constant of the complex was Kass=85-105 M^−1

A short description of series [2]: Binding constants of flavorants, microcalorimetric method and GC flavorant retention. The source says:
The tested compounds included those that are generally soluble or miscible in water. The complexes with the cyclodextrins were formed using methods corresponding to the two specifically described examples below involving apricot flavorant and banana flavorant.
Two types of methods were used to determine the apparent binding constants noted above. The “microcalorimetric” method was used as described in Lewis et al., “Thermodynamics of binding of guest molecules to alpha- and beta-cyclodextrins,” J. Chem. Soc. Perkin. Trans. 2, (15) pp. 2081-2085, 1973, the complete disclosure of which is hereby incorporated by reference for all purposes. Also, by measuring the flavorant retention in the inclusion complexes and the corresponding mechanical mixtures (identical composition except that linear dextrin is used in place of cyclodextrins) with gas chromatography, according to the method described by Reineccius et al., “Encapsulation of flavors using cyclodextrins: comparison of flavor retention in alpha, beta, and gamma types,” Journal of Food Science, 67(9), pp. 3271-3279 (2002), the complete disclosure of which is hereby incorporated by reference for all purposes.

Series [3] can be described thus: Association constants by capillary electrophoresis. Type of series: binding. Conditions: for Association constant, α-Cyclodextrin / Association constant, β-Cyclodextrin / Association constant, γ-Cyclodextrin: aqueous system, mean of three parallel determinations. How it is done:
The association or binding constants of several selected weak complex-forming guest molecules with alpha-, beta- and gamma-cyclodextrins were experimentally determined. Capillary electrophoresis was utilized to determine the complex binding constants of selected dietary supplements thiamine, niacin and L-arginine in aqueous systems. The following values were determined:
Similarly, capillary electrophoresis was utilized to determine the complex binding constants of selected flavorants ethyl acetate, isoamyl acetate, diacetyl, and N,N-dimethyl formamide with alpha-, beta- and gamma-cyclodextrins.

Series [4] in a line: Apparent binding constant determined by chromatography. Conditions: in water at 25° C. How it is done: Also, the apparent binding constant of the alpha-cyclodextrin N-tert-butyl-hydroxylamine complex was determined by chromatography.
A short description of series [5]: Laser light scattering particle size distribution of dissolved alpha-cyclodextrin (aggregation). Type of series: physicochemical. The source says: These solutions were then subjected to laser light scattering to determine the distribution of particle sizes in each solution. […] Cyclodextrin molecules in a less aggregated form likely include more available binding sites for complex formation. This experiment thus provides evidence that is consistent with the conclusion that carbonation allows for the availability of more cyclodextrin binding sites for forming complexes with fats.

Series [6] can be described thus: Fat binding by a mixture of alpha-, beta- and gamma-cyclodextrins in water (precipitated inclusion complex). The following applies: 0.01M each cyclodextrin and palmitic acid, 4 hours, ambient temperature. The source says: This reaction mixture was stirred for four hours at ambient temperature. […] The precipitate was removed by centrifugation.
The conditions of series [7]: cited from earlier work.
The next series relates to HepG2 cells. Conditions: cited from earlier work.

We go through 19 compounds from patent US9790351B2, “Fat-binding compositions” (Eastpond Laboratories Limited, priority 2010, dated 2017).

Structures are written as SMILES. Counter-ions that a name gives are not always drawn.

As to `O=C(O)C1=C/C(=C/C=[N+]2/c3cc(O)c(OC4OC(CO)[C@@H](O)C(O)C4O)cc3CC2C(=O)[O-])CC(C(=O)O)N1` (stereo in doubt) [betanin], the “binding constant Kass” value in series [1] is 85 to 105 M⁻¹.
Regarding `CCCCCOC(C)=O` [Amyl acetate], in series [2], the “Calculated Binding Constants, complex formed with alpha-cyclodextrin” value is 85 M⁻¹ and the “Calculated Binding Constants, complex formed with beta-cyclodextrin” value was 40 M⁻¹.
Taken in the same sequence, the figures for `CCCCOC(C)=O` [Butyl acetate] were 72 M⁻¹ and 85 M⁻¹.
As to `CCOC(C)=O` [Ethyl acetate], in series [2], the “Calculated Binding Constants, complex formed with alpha-cyclodextrin” value was 60 M⁻¹ and the “Calculated Binding Constants, complex formed with beta-cyclodextrin” value was 100 M⁻¹. Moreover, in series [3], the “Association constant K, α-Cyclodextrin” value is 37 M⁻¹; the “Association constant K, β-Cyclodextrin” value turned out to be 10 M⁻¹; the “Association constant K, γ-Cyclodextrin” value stood at 9 M⁻¹.
For the compound `N=C(N)NCCC[C@H](N)C(=O)O` [L-arginine], in series [3], the “Association constant, α-Cyclodextrin” value is reported as 21 ± 2; the “Association constant, β-Cyclodextrin” value is listed as 100 ± 5; the “Association constant, γ-Cyclodextrin” value stood at 9 ± 2.
Consider `CC(C)(C)NO` [N-tert-butyl-hydroxylamine], for which the apparent binding constant in series [4] lay in the range of 80 to 105 M⁻¹.
For `O=C(O)c1cccnc1` [Nicotinic acid], in series [3], the “Association constant, α-Cyclodextrin” value worked out at 17 ± 2; the “Association constant, β-Cyclodextrin” value worked out at 37 ± 3; the “Association constant, γ-Cyclodextrin” value amounted to 10 ± 2.
Turning to `Cc1ncc(C[n+]2csc(CCO)c2C)c(N)n1` [Thiamine HCl], in series [3], the “Association constant, α-Cyclodextrin” value is recorded as 20 ± 2; the “Association constant, β-Cyclodextrin” value was found to be 73 ± 3; the “Association constant, γ-Cyclodextrin” value was found to be 8 ± 1.
With `C=CCOC(=O)CCC` [allyl butyrate], in series [2], the “Calculated Binding Constants, complex formed with alpha-cyclodextrin” value is 45 M⁻¹ and the “Calculated Binding Constants, complex formed with beta-cyclodextrin” value was 34 M⁻¹.
For the compound `OC[C@H]1O[C@@H]2O[C@H]3[C@H](O)[C@@H](O)[C@@H](O[C@H]4[C@H](O)[C@@H](O)[C@@H](O[C@H]5[C@H](O)[C@@H](O)[C@@H](O[C@H]6[C@H](O)[C@@H](O)[C@@H](O[C@H]7[C@H](O)[C@@H](O)[C@@H](O[C@H]1[C@H](O)[C@H]2O)O[C@@H]7CO)O[C@@H]6CO)O[C@@H]5CO)O[C@@H]4CO)O[C@@H]3CO` [alpha-cyclodextrin], the “particle size of cyclodextrin particles” value in series [5] (2% w/v in carbonated water) is reported as under 500 nm. Further, the “particle size of the majority of cyclodextrin particles” value in series [5] (2% w/v in non-carbonated tap water) is recorded as ~1,000 nm. Besides, the “share of the cyclodextrin/palmitic acid complex in the precipitated complex” value in series [6] is given as “about 78%”.
With `CCCCCOC(=O)CCCC` [amyl valerate], in series [2], the “Calculated Binding Constants, complex formed with alpha-cyclodextrin” value was 67 M⁻¹ and the “Calculated Binding Constants, complex formed with beta-cyclodextrin” value is 45 M⁻¹.
For `CCCCOC(=O)CC(C)C` [butyl isovalerate], in series [2], the “Calculated Binding Constants, complex formed with alpha-cyclodextrin” value was 95 M⁻¹ and the “Calculated Binding Constants, complex formed with beta-cyclodextrin” value is 110 M⁻¹.
As to `CN(CC(=O)O)C(=N)N` [creatine], the intelligence result in series [7] (diet supplementation, compared with placebo) was “significantly increased intelligence”. In series [7] (elderly), the cognitive ability result is listed as “improved cognitive ability”.
For `CC(=O)C(C)=O` [diacetyl], in series [3], the “Association constant K, α-Cyclodextrin” value amounted to 28 M⁻¹; the “Association constant K, β-Cyclodextrin” value came to 43 M⁻¹; the “Association constant K, γ-Cyclodextrin” value amounted to 58 M⁻¹.
Turning to `CCCCC(=O)OCC` [ethyl valerate], in series [2], the “Calculated Binding Constants, complex formed with alpha-cyclodextrin” value was 46 M⁻¹ and the “Calculated Binding Constants, complex formed with beta-cyclodextrin” value was 80 M⁻¹.
On to `OC[C@H]1O[C@@H]2O[C@H]3[C@H](O)[C@@H](O)[C@@H](O[C@H]4[C@H](O)[C@@H](O)[C@@H](O[C@H]5[C@H](O)[C@@H](O)[C@@H](O[C@H]6[C@H](O)[C@@H](O)[C@@H](O[C@H]7[C@H](O)[C@@H](O)[C@@H](O[C@H]8[C@H](O)[C@@H](O)[C@@H](O[C@H]9[C@H](O)[C@@H](O)[C@@H](O[C@H]1[C@H](O)[C@H]2O)O[C@@H]9CO)O[C@@H]8CO)O[C@@H]7CO)O[C@@H]6CO)O[C@@H]5CO)O[C@@H]4CO)O[C@@H]3CO` [gamma-cyclodextrin], for which the “share of the cyclodextrin/palmitic acid complex in the precipitated complex” value in series [6] is recorded as “undetectable amounts”.
In the case of `CC(=O)OCCC(C)C` [isoamyl acetate], in series [3], the “Association constant K, α-Cyclodextrin” value turned out to be 729 M⁻¹; the “Association constant K, β-Cyclodextrin” value turned out to be 382 M⁻¹; the “Association constant K, γ-Cyclodextrin” value was 32 M⁻¹.
Turning to `Cc1occc(=O)c1O` [maltol], in series [2], the “Calculated Binding Constants, complex formed with alpha-cyclodextrin” value is 70 M⁻¹ and the “Calculated Binding Constants, complex formed with beta-cyclodextrin” value was 98 M⁻¹.
With `NCCS(=O)(=O)O` [taurine], the “secretion of apolipoprotein and lipids” value in the series with HepG2 cells was “reduce the secretion of apolipoprotein 8100 and lipids”.
